Results: the NIST ThermoML archive (doi:10.1016/j.jct.2006.08.009)

Test: mn = molality of the nth substance listed, in mol/kg
Conditions: 350 kPa, Liquid; for apparent molar heat capacity: Extra sensitive DSC

OC[C@@H](O)[C@H](O)[C@H](O)[C@@H](O)CO [dulcitol] + O
Conditions	apparent molar heat capacity [J/K/mol]	mass density [kg/m3]
278.15 K, m1 = 0.0188	374	1001.19
278.15 K, m1 = 0.0418	369	1002.77
278.15 K, m1 = 0.0698	379.2	1004.44
278.15 K, m1 = 0.0986	380.1	1006.47
278.15 K, m1 = 0.119	370.3	1007.99
278.15 K, m1 = 0.1492	379.2	1009.86
283.15 K, m1 = 0.0188	394	1000.99
283.15 K, m1 = 0.0418	389	1002.48
283.15 K, m1 = 0.0698	397.8	1004.2
283.15 K, m1 = 0.0986	398.6	1006.13
283.15 K, m1 = 0.119	388.5	1007.58
283.15 K, m1 = 0.1492	397.5	1009.47
288.15 K, m1 = 0.0188	409	1000.42
288.15 K, m1 = 0.0418	405	1001.85
288.15 K, m1 = 0.0698	412.3	1003.61
288.15 K, m1 = 0.0986	413.3	1005.5
288.15 K, m1 = 0.119	402.7	1006.94
288.15 K, m1 = 0.1492	412	1008.75
293.15 K, m1 = 0.0188	423	–
293.15 K, m1 = 0.0418	418	–
293.15 K, m1 = 0.0698	425.3	–
293.15 K, m1 = 0.0986	426.5	–
293.15 K, m1 = 0.119	416.6	–
293.15 K, m1 = 0.1492	425	–
298.15 K, m1 = 0.0188	434	998.35
298.15 K, m1 = 0.0418	430	999.74
298.15 K, m1 = 0.0698	436.4	1001.5
298.15 K, m1 = 0.0986	437.6	1003.47
298.15 K, m1 = 0.119	428.5	1004.74
298.15 K, m1 = 0.1492	436.1	1006.52
303.15 K, m1 = 0.0188	444	–
303.15 K, m1 = 0.0418	439	–
303.15 K, m1 = 0.0698	446	–
303.15 K, m1 = 0.0986	447.4	–
303.15 K, m1 = 0.119	438.9	–
303.15 K, m1 = 0.1492	445.8	–
308.15 K, m1 = 0.0188	453	995.36
308.15 K, m1 = 0.0418	448	996.65
308.15 K, m1 = 0.0698	454.4	998.44
308.15 K, m1 = 0.0986	456	1000.21
308.15 K, m1 = 0.119	447.9	1001.54
308.15 K, m1 = 0.1492	454.3	1003.38
313.15 K, m1 = 0.0188	461	–
313.15 K, m1 = 0.0418	455.7	–
313.15 K, m1 = 0.0698	462.1	–
313.15 K, m1 = 0.0986	463.5	–
313.15 K, m1 = 0.119	456	–
313.15 K, m1 = 0.1492	461.9	–
318.15 K, m1 = 0.0188	468	991.52
318.15 K, m1 = 0.0418	462.7	992.87
318.15 K, m1 = 0.0698	468.8	994.59
318.15 K, m1 = 0.0986	470.3	996.35
318.15 K, m1 = 0.119	463.3	997.6
318.15 K, m1 = 0.1492	468.7	999.44
323.15 K, m1 = 0.0188	475	–
323.15 K, m1 = 0.0418	469	–
323.15 K, m1 = 0.0698	474.9	–
323.15 K, m1 = 0.0986	476.5	–
323.15 K, m1 = 0.119	469.8	–
323.15 K, m1 = 0.1492	474.8	–
328.15 K, m1 = 0.0188	481	986.98
328.15 K, m1 = 0.0418	474.7	988.34
328.15 K, m1 = 0.0698	480.5	990.01
328.15 K, m1 = 0.0986	482.1	991.76
328.15 K, m1 = 0.119	475.7	993.01
328.15 K, m1 = 0.1492	480.4	994.81
333.15 K, m1 = 0.0188	486	–
333.15 K, m1 = 0.0418	479.8	–
333.15 K, m1 = 0.0698	485.6	–
333.15 K, m1 = 0.0986	487.2	–
333.15 K, m1 = 0.119	481	–
333.15 K, m1 = 0.1492	485.5	–
338.15 K, m1 = 0.0188	491	981.81
338.15 K, m1 = 0.0418	484.5	983.19
338.15 K, m1 = 0.0698	490.1	984.85
338.15 K, m1 = 0.0986	491.8	986.55
338.15 K, m1 = 0.119	486	987.85
338.15 K, m1 = 0.1492	490.1	989.64
343.15 K, m1 = 0.0188	495	–
343.15 K, m1 = 0.0418	488.6	–
343.15 K, m1 = 0.0698	494.2	–
343.15 K, m1 = 0.0986	495.9	–
343.15 K, m1 = 0.119	490.4	–
343.15 K, m1 = 0.1492	494.3	–
348.15 K, m1 = 0.0188	499	976.1
348.15 K, m1 = 0.0418	492.2	977.46
348.15 K, m1 = 0.0698	497.9	979.12
348.15 K, m1 = 0.0986	499.6	980.85
348.15 K, m1 = 0.119	494.4	982.09
348.15 K, m1 = 0.1492	497.9	983.86
353.15 K, m1 = 0.0188	502	–
353.15 K, m1 = 0.0418	495.4	–
353.15 K, m1 = 0.0698	501.2	–
353.15 K, m1 = 0.0986	502.9	–
353.15 K, m1 = 0.119	498.1	–
353.15 K, m1 = 0.1492	501.2	–
358.15 K, m1 = 0.0188	504	969.86
358.15 K, m1 = 0.0418	498.1	971.46
358.15 K, m1 = 0.0698	503.5	972.88
358.15 K, m1 = 0.0986	505.2	974.54
358.15 K, m1 = 0.119	501.3	975.86
358.15 K, m1 = 0.1492	503.6	977.9
363.15 K, m1 = 0.0188	506	–
363.15 K, m1 = 0.0418	499.6	–
363.15 K, m1 = 0.0698	504.4	–
363.15 K, m1 = 0.0986	505.7	–
363.15 K, m1 = 0.119	504.1	–
363.15 K, m1 = 0.1492	504.3	–
368.15 K, m1 = 0.0188	–	963.12
368.15 K, m1 = 0.0418	–	964.48
368.15 K, m1 = 0.0698	–	966.14
368.15 K, m1 = 0.0986	–	967.86
368.15 K, m1 = 0.119	–	969.19
368.15 K, m1 = 0.1492	–	970.84
